This is an account of results in US20120134978A1, “Cross-Linking of Superoxide Dismutase Monomers” (Brandeis University, priority 2009, published 2012).

Entries after “also recorded” stand apart in the source; their conditions may differ.

The target in data set [1] is T1, wtSOD1 (Homo sapiens, UniProt P00441).
T1 construct: purchased Sigma-Aldrich (St. Louis, Mo.)
The data set is described as follows: Cross-linking and western blots (SDS-PAGE) of SOD1. The format is biochemical. As to conditions: for SOD1 dimer formation by cross-linking (western blot): 1:1 or 1:3 molar ratio SOD1 to cross-linker, 1 hour, room temperature.

In data set [2] the target is T2, G93A SOD1 (Homo sapiens, UniProt P00441, G94A).
T2 construct: made in house; host or cells: S. cerevisiae EGy118ΔSOD1, vector YEp-351
The data set is described as follows: LC-FTMS of cross-linked SOD1 (stoichiometry of cross-linker binding). Particulars: 1:1 molar ratio. The method, then:
G93A was cross-linked using DMTE or BMOE as previously described at a 1:1 molar ratio (5 μM:5 μM). After one hour, 3% acetonitrile and 1% formic acid was added to the sample and spun at 14,000 RPM for 10 minutes to pellet any precipitated protein. The cross-linked sample was placed in an autosampler and 1 μL of cross-linked sample was aspirated into either a Proxeon 1D HPLC or Eksigent 2D HPLC with the following gradient: 3-50% B for 30 minutes, 50-95% B for 7 minutes, 95% B for 5 minutes, 95-3% B for 1 minute, and 3% B for 15 minutes. Buffer A is HPLC water with 0.1% formic acid and buffer B is 100% acetonitrile, 0.1% formic acid. After liquid chromatography, the sample was ionized using nanospray ionization and analyzed using a […] Bruker Daltonics FTMS. The FTMS was controlled using Apex control software and source parameters were controlled using the Apollo II software. Spectra (monomeric and dimeric G93A) were collected using a skimmer 1 voltage of 35-40V, whereas funnel skimmer dissociation was used to fragment the cross-linked G93A by increasing skimmer one voltage 140 volts. LC-FTMS data of cross-linked and non-cross-linked G93A were analyzed using Data Analysis software (Bruker Daltonics). These experiments were repeated in triplicate. […]

In data set [3] the target is T3, G85R SOD1 (Homo sapiens, UniProt P00441, G86R).
T3 construct: made in house; host or cells: S. cerevisiae EGy118ΔSOD1, vector YEp-351
The data set is described as follows: Peptide sequencing using LC-FTMS (bottom-up analysis, site of cross-linking). Format: binding. Particulars: 1:1 molar ratio, Glu-C digest.

In data set [4] the target is T3, G85R SOD1. The data set is described as follows: SOD1 activity assay (NBT gel based). As to conditions: ~42 μM G85R; for SOD1 activity on addition of the substance: excess copper, zinc or cross-linker. Format: biochemical. The procedure:
(§1) The DTME cross-linked samples were divided in half, where one half was incubated with 10 mM TCEP and one was not, then analyzed on a 12.5% polyacrylamide gel. The gel was stained using a solution containing 50 mM potassium phosphate, pH 7.8, 1 tablet NBT (10 mg/tablet), and 0.1 mg/mL riboflavin for 45 minutes in the dark. After the 45 minute incubation 1 μL/mL TEMED was added and the gel was exposed to light for 2 minutes. Superoxide radicals create insoluble blue formazon from NBT. SOD1 acitivity is seen as a colorless band since SOD1 scavenges the superoxide, thus inhibiting the blue color formation. Repeated in triplicate.

Data set [5] has as its target T2, G93A SOD1. The data set is described as follows: SOD1 activity assay (NBT gel based). The format is biochemical. As to conditions: ~42 μM SOD1, 80 μM copper and zinc and/or 42 μM cross-linker. The procedure: as §1
Data set [6] deals with T1, wtSOD1. The data set is described as follows: SOD1 activity assay (NBT gel based). The format is biochemical. Particulars: ~42 μM SOD1, 80 μM copper and zinc and/or 42 μM cross-linker. The method, then:
as §1

The target of data set [7] is T1, wtSOD1. The data set is described as follows: MALDI-TOF MS of cross-linked SOD1. The format is biochemical. As to conditions: 1:1 molar ratio.
In data set [8] the test system is human. Particulars: LD50 values in human; cited from earlier work.
Data set [9] has as its target T2, G93A SOD1. The data set is described as follows: Thermofluorescence stability assay (SYPRO Orange). The format is binding. As to conditions: 10 μM G93A, 20 μM copper, 20 μM zinc.
Data set [10] has as its target T3, G85R SOD1. The data set is described as follows: Thermofluorescence stability assay (SYPRO Orange). As to conditions: 10 μM G85R, 20 μM copper, 20 μM zinc. Format: binding.

T3 sequence (P00441 2-154 G86R limits assumed): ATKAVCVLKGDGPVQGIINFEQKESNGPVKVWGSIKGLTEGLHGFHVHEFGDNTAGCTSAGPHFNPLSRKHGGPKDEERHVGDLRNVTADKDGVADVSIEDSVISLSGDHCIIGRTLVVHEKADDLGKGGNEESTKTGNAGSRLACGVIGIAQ
T1 sequence (P00441 2-154 limits assumed): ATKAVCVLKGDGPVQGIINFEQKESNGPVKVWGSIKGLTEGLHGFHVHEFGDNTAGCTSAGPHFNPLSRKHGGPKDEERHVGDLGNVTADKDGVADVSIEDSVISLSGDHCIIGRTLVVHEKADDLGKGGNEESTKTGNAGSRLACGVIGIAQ
T2 sequence (P00441 2-154 G94A limits assumed): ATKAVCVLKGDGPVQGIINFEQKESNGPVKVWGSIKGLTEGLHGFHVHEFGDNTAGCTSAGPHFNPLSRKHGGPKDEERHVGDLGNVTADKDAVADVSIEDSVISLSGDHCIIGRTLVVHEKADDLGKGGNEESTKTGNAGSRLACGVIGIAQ

`O=C1C=CC(=O)N1CCOCCOCCN1C(=O)C=CC1=O` [BM(PEG)2, 1,8-bis-Maleimidodiethyleneglycol]: the “SOD1 dimer formation by cross-linking (western blot)” value (“SOD1 dimer formation” below) in data set [1] is given as “resulted in the stabilization of SOD1 dimer”.
Consider `O=C1C=CC(=O)N1CCCCN1C(=O)C=CC1=O` [BMB, 1,4bismaleimidobutane], for which, in [1], the “SOD1 dimer formation” value was “resulted in the stabilization of SOD1 dimer”.
The same measure, in the same setting: for `O=C1C=CC(=O)N1CC(O)C(O)CN1C(=O)C=CC1=O` (stereo not shown) [BMDB, 1,4-bismaleimidyl-2,3-dihydroxybutane] the value was “resulted in the stabilization of SOD1 dimer”.
`O=C1C=CC(=O)N1CCN1C(=O)C=CC1=O` [BMOE, bis(maleimido)ethane]: in data set [2], the “stoichiometry of cross-linker binding” value is “consistent with the molecular weight of G93A plus one cross-linker”. Also, the “cross-reactivity with other SOD1 cysteine residues Cys6, Cys57 and Cys146” value in data set [3] is “relatively low”. Besides, in data set [3], the site of cross-linking result is given as “mainly through Cys111”. In addition, the “SOD1 activity on addition of the substance” value (from here on “SOD1 activity on addition”) is reported as “increases” in data set [4], “unaffected” in data set [5] and “unchanged” in [6].
`O=C1C=CC(=O)N1CCSSCCN1C(=O)C=CC1=O` [DTME, Dithio-bismaleimidoethane]: in data set [1] (1:1 molar ratio, SDS PAGE with reducing agent), the “state of cross-linked SOD1 dimer in presence of reducing agent (DTT)” value was “only monomer was observed; also recorded: returning the dimer to its monomeric form; also recorded: became a monomer in the presence of reducing agent”. The “SOD1 dimer formation” value in [1] is “resulted in the stabilization of SOD1 dimer; also recorded: resulted in dimeric SOD1”. For the same compound, the “dimer observed in MALDI-TOF spectra of cross-linked SOD1” value in data set [7] is “The majority of the species observed is dimeric wtSOD1”. The “stoichiometry of cross-linker binding” value in data set [2] is “one equivalent of cross-linker produced one equivalent of dimer; also recorded: consistent with the molecular weight of G93A plus one cross-linker”. The “SOD1 activity in the presence of copper, zinc and cross-linker” value in [4] (80 μM copper and zinc and 42 μM cross-linker) is reported as “even larger increase in activity; also recorded: largest increase in activity”. In addition, the “SOD1 activity on addition” value in data set [4] was “increases”.
On to `C=CS(=O)(=O)CCCCCCS(=O)(=O)C=C` [HBVS, 1,6-Hexanol-bis-vinylsulfone], for which the “SOD1 dimer formation” value in [1] is listed as “did not result in formation of dimeric SOD1; also recorded: did not appear to cross-link SOD1”.
Regarding `O=C(CI)NCCNC(=O)CI` [N,N′-ethylenebis-(iodoacetamide)], the LD50 in [8] is 9 mg/kg.
For the compound `O=C1C=CC(=O)N1CCN(CCN1C(=O)C=CC1=O)CCN1C(=O)C=CC1=O` [TMEA, Tris[2-maleimidoethyl]-amione], in [1] (1:1 or 1:3 cross-linker to protein), the “relative cross-linking efficiency (western blot)” value is given as “most efficient cross-linker”. For the same compound, the “SOD1 dimer formation” value in data set [1] is listed as “resulted in the stabilization of SOD1 dimer”.
In the case of `NNc1ccccc1` [phenylhydrazine], the median lethal dose (LD50) in data set [8] is 80 mg/kg.
On to copper and zinc, for which, in data set [9], the “effect of excess copper and zinc on stability” value was “no affect; also recorded: little effect”. In addition, the “stabilization by excess copper and zinc alone” value in data set [10] was around 20 °C. In addition, the “SOD1 activity on addition” value in data set [4] is listed as “increases”; in data set [5], “unaffected”; in data set [6] (zinc), “unaffected; also recorded: unchanged”.
